Key:
Type in all cases: in vivo
[1] = test system: wildtype (ts1-ref/+) sibling plants; assay: Jasmonic acid treatment of heterozygous wild-type sibling maize plants; conditions: 1 mM JA, three times at 48-hour intervals
Description: (§1) Maize plants were grown under greenhouse conditions. Two seeds were planted in 2-gallon reusable pots containing Super-Fine Germinating Mix (Fafard, Agawam, Mass., USA) or Redi-earth Professional Growing Mix (Sun Gro, Bellevue, Wash., USA). Fertilization was performed with controlled release Osmocote Plus 15-9-12 (Scotts, Marysville, Ohio, USA) following the manufacturer recommendations. Additional watering was performed with 4% ammonium iron citrate (Sigma-Aldrich) every 2 weeks to prevent chlorosis. Greenhouse average temperatures were 28° C. (day) and 21° C. (night). Supplemental lightning was provided to achieve a 16:8 hour photoperiod yearlong.
(§2) Tassels of about 1 cm were considered to be at an ideal stage to initiate chemical treatments. Since a thick leaf whorl covers the maize tassel at this time of development, only a destructive dissection of the plant permits to assess with certainty the stage of tassel development (Bonnet, 1940, J. Agricult. Res. 60:25; Bonnet, 1948, Ann. Mo. Bot. Gard. 35:269). Additionally, the sex determination phase was reached within a wide time window, between 28 and 46 days post-planting, depending on the growing conditions. Leaf number, node number or internode distance were not always reliable criteria to predict the tassel developmental stage. […]

[2] = test system: ts1 mutant (ts1-ref/ts1-ref) plants; assay: Jasmonic acid treatment of ts1 mutant maize tassels
Description: as §1
Tassels of about 1 cm were considered to be at an ideal stage to initiate chemical treatments. Since a thick leaf whorl covers the maize tassel at this time of development, only a destructive dissection of the plant permits to assess with certainty the stage of tassel development (Bonnet, 1940, J. Agricult. Res. 60:25; Bonnet, 1948, Ann. Mo. Bot. Gard. 35:269). Additionally, the sex determination phase was reached within a wide time window, between 28 and 46 days post-planting, depending on the growing conditions. Leaf number, node number or internode distance were not always reliable criteria to predict the tassel developmental stage.
Seedlings from a family segregating 1:1 for wild-type (ts1-ref/Ts1) and ts1 mutant (ts1-ref/ts1-ref) plants were genotyped for the Ts1 and ts1-ref alleles with a PCR-based assay. […] Jasmonic acid (JA, Sigma-Aldrich) was dissolved at a concentration of 200 mM in absolute ethanol and stored at −20° C. Prior to plant treatment, the JA stock solution was diluted to a concentration of 1 mM in deionized water. Control plants were treated with a 0.005% ethanol solution (“blank” treatment or negative control). One ml of the corresponding solution was applied into the apical leaf cavity of each plant. Treatments were performed three times at 48-hour intervals.
The developmental timing of the pistil abortion process occurs in tassel inflorescences when they are 1.0 to 3.0 cm in length (Irish & Nelson, 1993, Am. J. Bot. 80:292), which was also the stage at which ts1 expression occurred in the subtending glumes (FIGS. 6B to 6D). A 0.005% ethanol solution, with or without 1 mM JA, was applied to tassels of ˜1 cm in wildtype (ts1-ref/+) or ts1 mutant (ts1-ref/ts1-ref) sibling plants.

[3] = test system: mutant ts2-ref/ts2-ref and ts2-ref/+ plants; assay: Jasmonic acid treatment of ts2 maize plants; conditions: JA applied as for ts1 plants
Description: as §1, §2

[4] = 1 mM JA, three times at 48-hour intervals

SMILES: CC/C=C\C[C@H]1C(=O)CC[C@@H]1CC(=O)O [JA, (1R,2R)-3-oxo-2-(2Z)-2-pentenylcyclopentaneacetic acid]
- effect of treatment on heterozygous ts1-ref/+ sibs [1]: nor did JA treatment affect heterozygous ts1-ref/+ sibs
- sexual phenotype of tassel (feminization; staminate spikelets) ([2]; 1 mM JA in 0.005% ethanol, 1 ml into apical leaf cavity, three times at 48-hour intervals, tassels of ~1 cm): reversed feminization
- glume morphology of treated ts1 mutants [2, 4]: elongated, were covered with numerous trichomes, and had a ring of anthocyanin deposited at the base
- time to appearance of wildtype rescue in glumes after treatment [2, 4]: 3 to 4 weeks
- stamen emergence from treated ts1 mutant spikelets ([2]; later in floral development): stamens emerged
- pollen viability of staminate florets from rescued ts1/ts1 plants ([2]; pollen used for self-pollination and test crosses): produced viable pollen
- completeness of rescued tassel inflorescence phenotype ([2]; some spikelets bisexual, others at base pistillate): incomplete
- response of ts2 plants to treatment [3]: responded in the same manner as the JA-treated ts1 mutants

— patent US9258998B2, “Methods for controlling flower development in plants” (Yale University, priority 2009, dated 2016)
